Measured values taken from patent publication US4684664A, “Derivatives of β-(4-isocyano-1,2,3,4-diepoxycyclopentyl) acrylic acid” (Kureha Kagaku Kogyo Kabushiki Kaisha, priority 1984, dated 1987).
≈ marks a conversion by molar mass, not a printed value.

Tests used:
Assay type in all cases: cell-based
[1] = test system: Serratia marcescens IAM 1184; test: Antibacterial activity, agar-dilution MIC, organism No. 13; settings: Serratia marcescens, IAM1184; Organism No. 13, bouillon-agar; read-out: Minimum Inhibitory Concentration
Text: Agar-dilution method was used for determination of the antibacterial activity and antifungal activity while using bouillon-agar culture medium, and the minimum inhibitory concentration of the specimen was expressed by μg/ml of the culture medium.

[2] = test system: Aspergillus niger IFO 6342; test: Antifungal activity, agar-dilution MIC, organism No. 30; settings: Aspergillus niger, IFO6342; Organism No. 30, bouillon-agar; read-out: Minimum Inhibitory Concentration
Summary of the method: (§1)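 Endpoint: MIC in μg/ml of culture medium. Method: agar dilution. Medium: bouillon agar.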

[3] = test system: Proteus rettgeri IFO 3850; test: Antibacterial activity, agar-dilution MIC, organism No. 22; settings: Providencia rettgeri, IFO3850; Organism No. 22, bouillon-agar; read-out: Minimum Inhibitory Concentration
Summary of the method: as §1

[4] = test system: Enterobacter aerogenes ATCC 13048; test: Antibacterial activity, agar-dilution MIC, organism No. 23; settings: Klebsiella aerogenes, ATCC13048; Organism No. 23, bouillon-agar; read-out: Minimum Inhibitory Concentration
Summary of the method: as §1

[5] = test system: Salmonella typhimurium IID 971; test: Antibacterial activity, agar-dilution MIC, organism No. 8; settings: Salmonella enterica; Organism No. 8, bouillon-agar; read-out: Minimum Inhibitory Concentration
Summary of the method: as §1

[6] = test system: Salmonella paratyphi-A 1015; test: Antibacterial activity, agar-dilution MIC, organism No. 10; settings: Salmonella enterica, PARATYPHI, read-out: Minimum Inhibitory Concentration
Summary of the method: as §1

[7] = test system: Pseudomonas aeruginosa IFO 3445; test: Antibacterial activity, agar-dilution MIC, organism No. 15; settings: Pseudomonas aeruginosa, IFO3445; Organism No. 15, bouillon-agar; read-out: Minimum Inhibitory Concentration
Summary of the method: as §1

Proteus vulgaris HX-19 = test: Antibacterial activity, agar-dilution MIC, organism No. 21; settings: Proteus vulgaris, HX19; Organism No. 21, bouillon-agar; read-out: Minimum Inhibitory Concentration
Summary of the method: as §1

[8] = test system: Salmonella enteritidis G 14; test: Antibacterial activity, agar-dilution MIC, organism No. 12; settings: Salmonella enterica, ENTERITIDIS; Organism No. 12, bouillon-agar; read-out: Minimum Inhibitory Concentration
Summary of the method: as §1

[9] = test system: Staphylococcus aureus MS 353; test: Antibacterial activity, agar-dilution MIC, organism No. 3; settings: Staphylococcus aureus, MS353; Organism No. 3, bouillon-agar; read-out: Minimum Inhibitory Concentration
Summary of the method: as §1

[10] = test system: Proteus mirabilis IFO 3849; test: Antibacterial activity, agar-dilution MIC, organism No. 19; settings: Proteus mirabilis, IFO3849; Organism No. 19, bouillon-agar; read-out: Minimum Inhibitory Concentration
Summary of the method: as §1

[11] = test system: Proteus morganii IFO 3848; test: Antibacterial activity, agar-dilution MIC, organism No. 18; settings: Morganella morganii, IFO3848; Organism No. 18, bouillon-agar; read-out: Minimum Inhibitory Concentration
Summary of the method: as §1

[12] = test system: Staphylococcus aureus FDA 209PJc-1; test: Antibacterial activity, agar-dilution MIC, organism No. 1; settings: Staphylococcus aureus, FDA209PJC1; Organism No. 1, bouillon-agar; read-out: Minimum Inhibitory Concentration
Summary of the method: as §1

[13] = test system: Salmonella shottmuelleri 8006; test: Antibacterial activity, agar-dilution MIC, organism No. 11; settings: Salmonella, 8006; Organism No. 11, bouillon-agar; read-out: Minimum Inhibitory Concentration
Summary of the method: as §1

[14] = test system: Bacillus subtilis ATCC 6633; test: Antibacterial activity, agar-dilution MIC, organism No. 14; settings: Bacillus subtilis, ATCC6633; Organism No. 14, bouillon-agar; read-out: Minimum Inhibitory Concentration
Summary of the method: as §1

Enterobacter cloacae 963 = test: Antibacterial activity, agar-dilution MIC, organism No. 24; settings: Enterobacter cloacae, 963; Organism No. 24, bouillon-agar; read-out: Minimum Inhibitory Concentration
Summary of the method: as §1

[15] = test system: Staphylococcus aureus Terajima; test: Antibacterial activity, agar-dilution MIC, organism No. 2; settings: Staphylococcus aureus; Organism No. 2, bouillon-agar; read-out: Minimum Inhibitory Concentration
Summary of the method: as §1

[16] = test system: Pseudomonas aeruginosa NCTC 10490; test: Antibacterial activity, agar-dilution MIC, organism No. 16; settings: Pseudomonas aeruginosa, NCTC10490; Organism No. 16, bouillon-agar; read-out: Minimum Inhibitory Concentration
Summary of the method: as §1

[17] = test system: Klebsiella pneumoniae PCI-602; test: Antibacterial activity, agar-dilution MIC, organism No. 7; settings: Klebsiella pneumoniae, PCI602; Organism No. 7, bouillon-agar; read-out: Minimum Inhibitory Concentration
Summary of the method: as §1

[18] = test system: Escherichia coli K12 C600 IAM 1264; test: Antibacterial activity, agar-dilution MIC, organism No. 6; settings: Escherichia coli, IAM1264; Organism No. 6, bouillon-agar; read-out: Minimum Inhibitory Concentration
Summary of the method: as §1

[19] = test system: Escherichia coli NIHJ-JC-2; test: Antibacterial activity, agar-dilution MIC, organism No. 5; settings: Escherichia coli, NIHJJC2; Organism No. 5, bouillon-agar; read-out: Minimum Inhibitory Concentration
Summary of the method: as §1

Salmonella typhi 901 = test: Antibacterial activity, agar-dilution MIC, organism No. 9; settings: Salmonella enterica, TYPHI, read-out: Minimum Inhibitory Concentration
Summary of the method: as §1

Proteus vulgaris OX-19 = test: Antibacterial activity, agar-dilution MIC, organism No. 20; settings: Proteus vulgaris, OX19; Organism No. 20, bouillon-agar; read-out: Minimum Inhibitory Concentration
Summary of the method: as §1

[20] = test system: Streptococcus pyogenes Cook; test: Antibacterial activity, agar-dilution MIC, organism No. 4; settings: Streptococcus pyogenes; Organism No. 4, bouillon-agar; read-out: Minimum Inhibitory Concentration
Summary of the method: as §1

[21] = test system: Micrococcus luteus ATCC 9341; test: Antibacterial activity, agar-dilution MIC, organism No. 25; settings: Micrococcus luteus, ATCC9341; Organism No. 25, bouillon-agar; read-out: Minimum Inhibitory Concentration
Summary of the method: as §1

[22] = test system: Candida albicans IAM 4905; test: Antifungal activity, agar-dilution MIC, organism No. 29; settings: Candida albicans, IAM4905; Organism No. 29, bouillon-agar; read-out: Minimum Inhibitory Concentration
Summary of the method: as §1

[23] = test system: Pseudomonas aeruginosa PAO 1; test: Antibacterial activity, agar-dilution MIC, organism No. 17; settings: Pseudomonas aeruginosa, PAO1; Organism No. 17, bouillon-agar; read-out: Minimum Inhibitory Concentration
Summary of the method: as §1

[24] = test system: Streptococcus pyogenes IFO 3340; test: Antibacterial activity, agar-dilution MIC, organism No. 26; settings: Streptococcus pyogenes, IFO3340; Organism No. 26, bouillon-agar; read-out: Minimum Inhibitory Concentration
Summary of the method: as §1

[25] = test system: Mycoplasma pneumoniae IID817; test: Antimycoplasmal activity, MIC by phenol red colour change, organism No. 28; settings: Mycoplasma, IID817; Organism No. 28, PPLO broth + 1% glucose, 37° C.; read-out: Minimum Inhibitory Concentration (MIC)
Experimental: Mycoplasma pneumoniae IID817 was used as the test microorganism in a culture medium prepared by adding 1% of glucose to "PPLO broth (manufactured by Difco Co.) liquid culture medium" at 37° C. with phenol red as an indicator, thereby culturing the test microorganism.

[26] = test system: Streptococcus faecium IFO 3826; test: Antibacterial activity, agar-dilution MIC, organism No. 27; settings: Enterococcus faecium, IFO3826; Organism No. 27, bouillon-agar; read-out: Minimum Inhibitory Concentration
Summary of the method: as §1

Compound	MIC [2]	MIC [3]	MIC [4]	MIC [5]	MIC [6]	MIC [7]	MIC (Proteus vulgaris HX-19)	MIC [8]	MIC [9]	MIC [10]	MIC [11]	MIC [12]	MIC [13]	MIC [14]	MIC (Enterobacter cloacae 963)	MIC [15]	MIC [16]	MIC [17]	MIC [18]	MIC [19]	further results
[C-]#[N+]C12CC3(/C=C/C(=O)Nc4nc5ccccc5s4)OC3C1O2 (stereo not drawn) [compound 70]	6.25 µg/mL (≈ 19.2 µM)	> 200 µg/mL	> 200 µg/mL	> 200 µg/mL	3.13 µg/mL (≈ 9.62 µM)	> 200 µg/mL	1.56 µg/mL (≈ 4.79 µM)	> 200 µg/mL	0.39 µg/mL (≈ 1.2 µM)	> 200 µg/mL	6.25 µg/mL (≈ 19.2 µM)	0.39 µg/mL (≈ 1.2 µM)	> 200 µg/mL	3.13 µg/mL (≈ 9.62 µM)	> 200 µg/mL	0.78 µg/mL (≈ 2.4 µM)	> 200 µg/mL	1.56 µg/mL (≈ 4.79 µM)	> 200 µg/mL	> 200 µg/mL	MIC [1]: > 200 µg/mL; MIC (Salmonella typhi 901): > 200 µg/mL; MIC (Proteus vulgaris OX-19): 1.56 µg/mL (≈ 4.79 µM); MIC [20]: 1.56 µg/mL (≈ 4.79 µM); MIC [21]: > 200 µg/mL; MIC [22]: 1.56 µg/mL (≈ 4.79 µM); MIC [23]: > 200 µg/mL
[C-]#[N+]C12CC3(/C=C/C(=O)N[C@@H](CCC(=O)OCc4ccccc4)C(=O)OCc4ccccc4)OC3C1O2 (stereo partly drawn) [Compound No. 28]	> 100 µg/mL	> 200 µg/mL	> 200 µg/mL	> 200 µg/mL	> 200 µg/mL	> 200 µg/mL	25 µg/mL (≈ 49.7 µM)	> 200 µg/mL	12.5 µg/mL (≈ 24.9 µM)	> 200 µg/mL	> 200 µg/mL	12.5 µg/mL (≈ 24.9 µM)	> 200 µg/mL	< 1.56 µg/mL	> 200 µg/mL	12.5 µg/mL (≈ 24.9 µM)	> 200 µg/mL	> 200 µg/mL	> 200 µg/mL	> 200 µg/mL	MIC [24]: > 200 µg/mL; MIC [25]: > 100 µg/mL; MIC (Salmonella typhi 901): > 200 µg/mL; MIC (Proteus vulgaris OX-19): > 200 µg/mL; MIC [20]: > 200 µg/mL; MIC [26]: 0.5 µg/mL (≈ 0.995 µM); MIC [21]: < 1.56 µg/mL; MIC [22]: > 100 µg/mL; MIC [23]: > 200 µg/mL
[C-]#[N+]C12CC3(/C=C/C(=O)Nc4ccc(Cl)cc4)OC3C1O2 (stereo not drawn) [compound 40]	1.56 µg/mL (≈ 5.15 µM)	6.25 µg/mL (≈ 20.6 µM)	> 200 µg/mL	12.5 µg/mL (≈ 41.3 µM)	0.1 µg/mL (≈ 0.33 µM)	> 200 µg/mL	< 0.05 µg/mL	3.13 µg/mL (≈ 10.3 µM)	< 0.05 µg/mL	> 200 µg/mL	3.13 µg/mL (≈ 10.3 µM)	< 0.05 µg/mL	0.1 µg/mL (≈ 0.33 µM)	6.25 µg/mL (≈ 20.6 µM)	200 µg/mL (≈ 661 µM)	0.1 µg/mL (≈ 0.33 µM)	> 200 µg/mL	< 0.05 µg/mL	> 200 µg/mL	> 200 µg/mL	MIC [24]: 0.39 µg/mL (≈ 1.29 µM); MIC [25]: < 0.2 µg/mL; MIC (Salmonella typhi 901): 0.39 µg/mL (≈ 1.29 µM); MIC (Proteus vulgaris OX-19): 0.1 µg/mL (≈ 0.33 µM); MIC [20]: 200 µg/mL (≈ 661 µM); MIC [26]: > 200 µg/mL; MIC [21]: < 0.05 µg/mL; MIC [22]: 0.39 µg/mL (≈ 1.29 µM); MIC [23]: > 200 µg/mL
[C-]#[N+]C12CC3(/C=C/C(=O)N[C@@H](CC(=O)OCc4ccccc4)C(=O)OCc4ccccc4)OC3C1O2 (stereo partly drawn) [Compound No. 29]	> 100 µg/mL	> 200 µg/mL	> 200 µg/mL	> 200 µg/mL	> 200 µg/mL	> 200 µg/mL	25 µg/mL (≈ 51.2 µM)	> 200 µg/mL	3.13 µg/mL (≈ 6.41 µM)	> 200 µg/mL	> 200 µg/mL	< 1.56 µg/mL	> 200 µg/mL	25 µg/mL (≈ 51.2 µM)	> 200 µg/mL	6.25 µg/mL (≈ 12.8 µM)	> 200 µg/mL	> 200 µg/mL	> 200 µg/mL	> 200 µg/mL	MIC [24]: > 200 µg/mL; MIC [25]: > 100 µg/mL; MIC (Salmonella typhi 901): > 200 µg/mL; MIC (Proteus vulgaris OX-19): > 200 µg/mL; MIC [20]: > 200 µg/mL; MIC [26]: 6.25 µg/mL (≈ 12.8 µM); MIC [21]: < 1.56 µg/mL; MIC [22]: > 100 µg/mL; MIC [23]: > 200 µg/mL
